Tests used:
Raw264.7 murine cells = test: Cytotoxicity test, LDH secretion, Raw264.7; type: cell-based; settings: for cytotoxicity (LDH), Raw264.7: stimulated, low concentrations
Method: 1.2.6. […] To measure the concentration of LDH in the cell lysate, 800 μL of NADH was added to 10 μL of […] and 190 μL of 0.1 M PBS in a plastic cuvette, and the decrease in the absorbance at 340 nm was monitored for 1 min. […] The percentage of cytotoxicity could be established with the formula: […]
The cytotoxicity of the tested and control compounds was evaluated using a measurement test of the LDH (Lactate Dehydrogenase) secretion. This test is based on the measurement of the amount of LDH secreted by the cells in their supernatant, compared to the amount of LDH that will remain in the intracellular compartment. This ratio provides an indication of the membrane damage suffered by the cells, and thus of the cytotoxicity of the compound.
Two methods were used to perform this test: the measurement using an extemporaneously prepared pyruvate/NADH solution, or using the Cytotoxicity Detection Kit^PLUS(LDH) from the manufacturer Roche (Sigma-Aldrich).
Pyruvate/NADH method: pyruvate/NADH solution prepared with 4.1 mg pyruvic acid (0.62 mM) and 7.7 mg NADH (0.18 mM) in 60 ml of 0.1M PBS (pH 7.4).
For the measurement of the LDH concentration in the supernatants, 800 μL of NADH was added to 200 μL of supernatant in plastic spectrometry cuvettes, and the decrease in absorbance of the final solution was read at 340 nm for 1 min. For the measurement of the LDH concentration in the cell lysates, 800 μL of NADH was added to 10 μL of cell lysates and 190 μL of 0.1M PBS in plastic spectrometry cuvettes, and the decrease in absorbance of the final solution was read at 340 nm for 1 min. The percentage of LDH secreted was then calculated by the ratio of the decay slopes of the absorbance of the supernatants and of the cell lysates (respectively).
Cytotoxicity Detection Kit^PLUS (LDH) method: absorbance test performed according to the manufacturer's instructions. The percentage of LDH secreted was then calculated by the formula: […]

Caco-2/TC7 cells = test: Stimulation of Caco-2/TC7 cells by IL-1β, IL-8 secretion (ELISA); type: cell-based, human
From the text: 1.1.1. The Caco-2/TC7 Cell Line • The Caco-2 cell line is derived from a human colon adenocarcinoma and represents a cell culture model of enterocytes lining the epithelium of the small intestinal. […] During the exponential growth phase (from seeding to confluence), the cells remain undifferentiated. At confluence, they can spontaneously (in the absence of differentiation inducers) differentiate and progressively polarize. The differentiation process, which is a growth-related mechanism, is maximal at the end of confluence (stationary phase of the growth curve). • The cells develop a brush border at the apical pole containing microvilli and with characteristic enterocytic enzymes, such as hydrolases. • In accordance with the published literature, the Caco-2/TC7 cells in our experiments were seeded at 10^5 cells/well (equivalent to 10-12×10^3 cells/cm^2) in 6-well plastic culture plates. The cells were maintained in a glucose-rich medium (high glucose in the DMEM GlutaMAX medium 4.5 g/I glucose) supplemented with 20% heat-inactivated foetal calf serum, 1% nonessential amino acids NEAA, and 1% penicillin streptomycin. The cells were grown at 37° C. in a 10% CO2/air atmosphere. The medium was changed every day. Under these conditions, the cells were confluent on day 6. On day 17, the cells were serum-starved, and were used on day 18.
1.2.1. Stimulation of Caco-2/TC7 with Cytokines • The Caco-2/TC7 cells were seeded in 6-well plates at 100,000 cells/well and grown for 18 days. On day 17, the cells were serum-starved, which means that the cell medium was replaced with a foetal calf serum-free medium, and used on day 18. • The stimulation medium was composed of a medium referred to as “starvation medium”, i.e. without foetal calf serum (DMEM GlutaMAX, 1% NEAA, 1% penicillin-streptomycin) with 100 μM of 2-HQ. The cells were incubated for 18 h at 37° C. with 2 ml of stimulation medium containing 0.1% DMSO (negative control) or stimulation medium containing the compounds tested at desired concentrations, with or without proinflammatory cytokines to induce an inflammation. To induce the inflammation, either the IL-1β at 25 ng/ml or the combination of TNF-α and IFN-γ at 50 ng/ml each were used. After 18 h, the supernatants were collected and stored at −80° C. before analysis by ELISA test. The cells were washed with 1 ml of PBS 1×/well, and lysed in 100 μl of PBS 1× containing 1% Triton X-100. The cells were harvested by scraping and stored at −80° C. before the quantification of the protein. The dosing of the LDH was performed immediately before freezing. • All the experiments on the cells were performed in triplicates.
1.2.4. Quantification of the Human Cytokines by ELISA • The levels of the proinflammatory cytokine IL-8 produced by the cells were determined in the cell supernatants and/or cell lysates using the commercially available IL-8 ELISA detection kit (Duoset Human C×CL8/IL-8, ref. DY208) provided by R & D Systems (Minneapolis, Minn., USA) according to the instructions of the manufacturer. • All the cytokine levels were first normalized to the protein content determined in the corresponding cell lysates. Then, to compare the experiments, they could be further normalized using the activated control condition (DMSO+cytokines) as the 100% response.

| SMILES | cytotoxicity (LDH), Raw264.7 (Raw264.7 murine cells) | activity on IL-1β-stimulated Caco-2/TC7 cells compared with natural 3-oxo-C12 HSL (Caco-2/TC7 cells; 1-50 μM range) | toxicity (LDH), Raw264.7 (Raw264.7 murine cells; at 50 μM) | LDH secreted compared with the diastereomer, Raw264.7 (Raw264.7 murine cells; at all concentrations) | toxicity (LDH), Raw264.7 (Raw264.7 murine cells; any of the concentrations tested) | activity on IL-1β-stimulated Caco-2/TC7 cells compared with natural 3-oxo-C12 HSL (Caco-2/TC7 cells; 10-100 μM range) |
| --- | --- | --- | --- | --- | --- | --- |
| CCCCCCCCCC(=O)CC(=O)N[C@H]1CCCC[C@@H]1O [I-2, N-[(1S,2S)-2-hydroxycyclohexyl]-3-oxo-dodecanamide] | not cytotoxic at low concentrations | an activity equivalent to that of the natural 3-oxo-C12 HSL |  |  |  |  |
| CCCCCCCCCC(=O)CC(=O)N[C@H]1CCCC[C@H]1O [I-4, N-[(1S,2R)-2-hydroxycyclohexyl]-3-oxo-dodecanamide] | not cytotoxic at low concentrations | an activity equivalent to that of the natural 3-oxo-C12 HSL | toxic | greater than that secreted in the presence of (S,S)-3oxoC12-ACH |  |  |
| CCCCCCCCCC(=O)CC(=O)Nc1cc(Cl)ccc1O [I-6, N-(5-chloro-2-hydroxyphenyl)-3-oxododecanamide] |  |  |  |  | not toxic | a significantly higher activity than that of the natural 3-oxo-C12 HSL |

Source: patent publication US20220411397A1, “ANALOGUES OF N-ACYL-HOMOSERINE LACTONES AND PHARMACEUTICAL COMPOSITION COMPRISING SAME” (SORBONNE UNIVERSITE, priority 2019, published 2022)
